According to patent publication US11052092B2, “N-{[2-(piperidin-1-yl)phenyl](phenyl)methyl}-2-(3-oxo-3,4-dihydro-2H-1,4-benzoxazin-7-yl)acetamide derivatives and related compounds as ROR-gamma modulators for treating autoimmune diseases” (Genfit, priority 2017, dated 2021):

Molecular target: T1, human RORγt (Homo sapiens, UniProt P51449)
T1 construct: the full-length cDNA of human RORγt; expressed in transfected cells; host or cells: COS-7 (monkey kidney)
T1 sequence (P51449 1-497 isoform P51449-2): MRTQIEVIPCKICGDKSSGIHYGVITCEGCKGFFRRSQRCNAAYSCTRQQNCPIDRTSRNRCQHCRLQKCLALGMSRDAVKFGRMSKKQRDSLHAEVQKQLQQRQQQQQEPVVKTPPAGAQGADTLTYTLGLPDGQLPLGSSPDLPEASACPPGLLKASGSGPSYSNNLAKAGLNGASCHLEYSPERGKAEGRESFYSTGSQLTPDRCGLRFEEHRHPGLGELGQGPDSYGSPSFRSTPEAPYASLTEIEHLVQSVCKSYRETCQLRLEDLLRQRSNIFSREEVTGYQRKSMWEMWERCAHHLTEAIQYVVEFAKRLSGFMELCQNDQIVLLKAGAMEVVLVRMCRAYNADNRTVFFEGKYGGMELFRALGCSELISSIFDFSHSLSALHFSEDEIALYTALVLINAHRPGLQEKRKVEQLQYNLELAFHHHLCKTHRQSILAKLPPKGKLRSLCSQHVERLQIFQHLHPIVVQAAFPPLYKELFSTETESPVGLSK
Test: RORE Luciferase/RORγt transactivation assay
Type: cell-based
Details: COS-7 cells transfected with human IL-17 promoter luciferase reporter and RORγt plasmid; 20 h with compound; read-out: IC50, RORγt activity inhibition
Experimental: It is well known that RORγ binds to a conserved non-coding sequence (CNS) enhancer element in the IL-17 promoter.
Culture medium was changed every 2 days.
The 4.3 Kb human IL-17 promoter containing the RORγ-specific CNS enhancer element was PCR amplified from human genomic DNA and cloned into a pGL3-TKLuc2Cp reporter plasmid.
The luciferase reporter plasmid and the RORγt overexpression plasmid were transfected into COS-7 cell line using 4 μLJetPEI™/μg of DNA. Briefly, 150 ng of DNA (ration ½ between RORE-Tk Luc2Cp and cDNA RORγt or the empty vector for the negative control) was served to transfect adherent COS-7 cells in a […] culture flask, in complete medium (see cos-7 cell line culture).
Cells were then detached (using trypsin) and washed by centrifugation at 300 g for 10 minutes. Cell pellet was resuspended in serum free/phenol red free DMEM and seeded in 384 well plates at a density of 10000 cells/well and then incubated for 4 h at 37° C.
Compounds were dissolved in 100% DMSO to obtain 10 mM stock solutions. For each compound, test concentrations were diluted in serum free/phenol red free DMEM using the Genesis Freedom 200™ (TECAN) and added to the cells to obtain a 0.3% DMSO final concentration (in a final volume of 40 μL per well).
The luciferase activity was then measured with 40 μL/well steady-Glo Luciferase assay system (Promega, Madison, Wis.) and after incubation at room temperature for 30 minutes. The luminescence was estimated using the Ultra384 reader (TECAN). Data were collected and analyzed using GraphPad Prism software (GraphPad Software V5.02, San Diego Calif. USA). IC50 in μM and Emax in % were reported for each compound.

| Compound | IC50 [nM] |
| --- | --- |
| Cc1ccc(C(NC(=O)C2(c3ccc4c(c3)OCC(=O)N4)CC2)c2ccc(Cl)cc2)c(C)c1 (stereo not shown) [Cpd. 140, N-[(4-chlorophenyl)(2,4-dimethylphenyl)methyl]-1-(3-oxo-3,4-dihydro-2H-1,4-benzoxazin-7-yl)cyclopropane-1-carboxamide] | 1000 to 10000 |
| Cc1ccc(C(NC(=O)C2(c3ccc4c(c3)OCS(=O)(=O)N4)CC2)c2ccc(C)o2)c(N(C)C)c1 (stereo not shown) [Cpd. 148, N-{[2-(dimethylamino)-4-methylphenyl](5-methylfuran-2-yl)methyl}-1-(2,2-dioxo-1,3-dihydro-4,2,1-benzoxathiazin-6-yl)cyclopropane-1-carboxamide] | 100 to 1000 |
| Cc1ccc(C(NC(=O)Cc2ccc3c(c2)CCC3=O)c2ccc(C)o2)c(N2CCCCC2)c1 (stereo not shown) [Cpd. 51, N-{[4-methyl-2-(piperidin-1-yl)phenyl](5-methylfuran-2-yl)methyl}-2-(1-oxo-2,3-dihydro-1H-inden-5-yl)acetamide] | 100 to 1000 |
| Cc1ccc(C(NC(=O)C2(c3ccc4c(c3)OCO4)CC2)c2ccc(C)o2)c(Br)c1 (stereo not shown) [Cpd. 161, 1-(2H-1,3-benzodioxol-5-yl)-N-[(2-bromo-4-methylphenyl)(5-methylfuran-2-yl)methyl]cyclopropane-1-carboxamide] | 100 to 1000 |
| Cc1ccc(C(NC(=O)C2(c3ccc4c(c3)C(F)(F)C(=O)N4)CC2)c2ccc(C)o2)c(C)c1 (stereo not shown) [Cpd. 159, 1-(3,3-difluoro-2-oxo-2,3-dihydro-1H-indol-5-yl)-N-[(2,4-dimethylphenyl)(5-methylfuran-2-yl)methyl]cyclopropane-1-carboxamide] | 100 to 1000 |
| Cc1ccc(C(NC(=O)Cc2ccc3c(c2)C(=O)CC3)c2ccc(C)o2)c(N2CCCCC2)c1 (stereo not shown) [Cpd. 67, N-{[4-methyl-2-(piperidin-1-yl)phenyl](5-methylfuran-2-yl)methyl}-2-(3-oxo-2,3-dihydro-1H-inden-5-yl)acetamide] | 100 to 1000 |
| COc1ccc(C(NC(=O)Cc2ccc3c(ccn3CCC(=O)OC(C)(C)C)c2)c2ccc(C)o2)c(N2CCCCCC2)c1 (stereo not shown) [Cpd. 110, tert-butyl 3-{5-[({[2-(azepan-1-yl)-4-methoxyphenyl](5-methylfuran-2-yl)methyl}carbamoyl)methyl]-1H-indol-1-yl}propanoate] | 100 to 1000 |
| Cc1ccc(C(NC(=O)C2(c3ccc4c(c3)CCC4=NO)CC2)c2ccc(C)o2)c(C)c1 (stereo not shown) [Cpd. 165, N-[(2,4-dimethylphenyl)(5-methylfuran-2-yl)methyl]-1-[1-(hydroxyimino)-2,3-dihydro-1H-inden-5-yl]cyclopropane-1-carboxamide] | 10 to 100 |
| Cc1ccc(C(NC(=O)C2(c3ccc4c(c3)CS(=O)(=O)N4CC3CCOCC3)CC2)c2ccc(C)o2)c(N2CCCCC2)c1 (stereo not shown) [Cpd. 162, N-{[4-methyl-2-(piperidin-1-yl)phenyl](5-methylfuran-2-yl)methyl}-1-[1-(oxan-4-ylmethyl)-2,2-dioxo-1,3-dihydro-2,1-benzothiazol-5-yl]cyclopropane-1-carboxamide] | 10 to 100 |
| Cc1ccc(C(NC(=O)C2(c3ccc4c(c3)CN(S(C)(=O)=O)C4)CC2)c2ccc(Cl)o2)c(C)c1 (stereo not shown) [Cpd. 56, N-[(5-chlorofuran-2-yl)(2,4-dimethylphenyl)methyl]-1-(2-methanesulfonyl-2,3-dihydro-1H-isoindol-5-yl)cyclopropane-1-carboxamide] | 10 to 100 |
| O=C1Cc2cc(CC(=O)NC(c3ccccc3)c3ccccc3N3CCOCC3)ccc2N1 (stereo not shown) [Cpd. 17, N-{[2-(morpholin-4-yl)phenyl](phenyl)methyl}-2-(2-oxo-2,3-dihydro-1H-indol-5-yl)acetamide] | 1000 to 10000 |
| Cc1ccc(C(NC(=O)C2(c3ccc4c(c3)OCC(=O)N4)CC2)c2ccc(C)o2)c(N(C)C)c1 (stereo not shown) [Cpd. 156, N-{[2-(dimethylamino)-4-methylphenyl](5-methylfuran-2-yl)methyl}-1-(3-oxo-3,4-dihydro-2H-1,4-benzoxazin-7-yl)cyclopropane-1-carboxamide] | 10 to 100 |
| CC(C)CC(NC(=O)Cc1ccc2c(c1)OCC(=O)N2)c1ccccc1N1CCCCC1 (stereo not shown) [Cpd. 6, N-{3-methyl-1-[2-(piperidin-1-yl)phenyl]butyl}-2-(3-oxo-3,4-dihydro-2H-1,4-benzoxazin-7-yl)acetamide] | 1000 to 10000 |
| Cc1ccc(C(NC(=O)Cc2ccc3c(ccn3CCC(=O)OC(C)(C)C)c2)c2ccc(C)o2)c(N2CCCCC2)c1 (stereo not shown) [Cpd. 96, tert-butyl 3-{5-[({[4-methyl-2-(piperidin-1-yl)phenyl](5-methylfuran-2-yl)methyl}carbamoyl)methyl]-1H-indol-1-yl}propanoate] | 100 to 1000 |

Now from value to molecule:

| IC50 [nM] | Compound |
| --- | --- |
| 10 to 100 | Cc1ccc(C(NC(=O)C2(c3ccc4c(c3)CCC4O)CC2)c2ccc(C)o2)c(C)c1 (stereo not shown) [Cpd. 155, N-[(2,4-dimethylphenyl)(5-methylfuran-2-yl)methyl]-1-(1-hydroxy-2,3-dihydro-1H-inden-5-yl)cyclopropane-1-carboxamide] |
| 10 to 100 | Cc1ccc(C(NC(=O)C2(c3ccc4c(c3)OCC(=O)N4)CC2)c2cccc(C)n2)c(C)c1 (stereo not shown) [Cpd. 136, N-[(2,4-dimethylphenyl)(6-methylpyridin-2-yl)methyl]-1-(3-oxo-3,4-dihydro-2H-1,4-benzoxazin-7-yl)cyclopropane-1-carboxamide] |
| 10 to 100 | Cc1ccc(C(NC(=O)C2(c3ccc4c(c3)CS(=O)(=O)N4C)CC2)c2ccc(C)o2)c(N(C)C)c1 (stereo not shown) [Cpd. 133, N-{[2-(dimethylamino)-4-methylphenyl](5-methylfuran-2-yl)methyl}-1-(1-methyl-2,2-dioxo-1,3-dihydro-2,1-benzothiazol-5-yl)cyclopropane-1-carboxamide] |
| < 10 | Cc1ccc(C(NC(=O)C2(c3ccc4c(c3)OCC(=O)N4)CC2)c2ccc(Cl)o2)c(C)c1 (stereo not shown) [Cpd. 134, N-[(5-chlorofuran-2-yl)(2,4-dimethylphenyl)methyl]-1-(3-oxo-3,4-dihydro-2H-1,4-benzoxazin-7-yl)cyclopropane-1-carboxamide] |
| 10 to 100 | Cc1ccc(C(NC(=O)Cc2ccc3c(ccn3CC3CCOCC3)c2)c2ccc(C)o2)c(N2CCCCC2)c1 (stereo not shown) [Cpd. 113, N-{[4-methyl-2-(piperidin-1-yl)phenyl](5-methylfuran-2-yl)methyl}-2-[1-(oxan-4-ylmethyl)-1H-indol-5-yl]acetamide] |
| < 10 | Cc1ccc(C(NC(=O)Cc2ccc3c(c2)CCN3C(=O)C2CC2)c2ccc(C)o2)c(N2CCCCC2)c1 (stereo not shown) [Cpd. 123, 2-(1-cyclopropanecarbonyl-2,3-dihydro-1H-indol-5-yl)-N-{[4-methyl-2-(piperidin-1-yl)phenyl](5-methylfuran-2-yl)methyl}acetamide] |
| 10 to 100 | Cc1ccc(C(NC(=O)C2(c3ccc4c(c3)C(C)(C)C(=O)N4)CC2)c2ccc(C)o2)c(C)c1 (stereo not shown) [Cpd. 146, 1-(3,3-dimethyl-2-oxo-2,3-dihydro-1H-indol-5-yl)-N-[(2,4-dimethylphenyl)(5-methylfuran-2-yl)methyl]cyclopropane-1-carboxamide] |
| 10 to 100 | Cc1ccc(C(NC(=O)Cc2ccc3c(c2)CS(=O)(=O)N3CC2CCOCC2)c2ccc(C)o2)c(N2CCCCC2)c1 (stereo not shown) [Cpd. 167, N-{[4-methyl-2-(piperidin-1-yl)phenyl](5-methylfuran-2-yl)methyl}-2-[1-(oxan-4-ylmethyl)-2,2-dioxo-1,3-dihydro-2,1-benzothiazol-5-yl]acetamide] |
| 10 to 100 | Cc1ccc(C(NC(=O)C2(c3ccc4c(c3)CS(=O)(=O)N4C)CC2)c2ccc(Cl)o2)c(C)c1 (stereo not shown) [Cpd. 160, N-[(5-chlorofuran-2-yl)(2,4-dimethylphenyl)methyl]-1-(1-methyl-2,2-dioxo-1,3-dihydro-2,1-benzothiazol-5-yl)cyclopropane-1-carboxamide] |
| 10 to 100 | Cc1ccc(C(NC(=O)C2(c3ccc4c(c3)OCC(=O)N4)CC2)c2ccc(Cl)o2)c(N2CCCCC2)c1 (stereo not shown) [Cpd. 145, N-[(5-chlorofuran-2-yl)[4-methyl-2-(piperidin-1-yl)phenyl]methyl]-1-(3-oxo-3,4-dihydro-2H-1,4-benzoxazin-7-yl)cyclopropane-1-carboxamide] |
| 10 to 100 | Cc1ccc(C(NC(=O)C2(c3ccc4c(c3)CS(=O)(=O)N4CC3CCOCC3)CC2)c2ccc(C)o2)c(Br)c1 (stereo not shown) [Cpd. 163, N-[(2-bromo-4-methylphenyl)(5-methylfuran-2-yl)methyl]-1-[1-(oxan-4-ylmethyl)-2,2-dioxo-1,3-dihydro-2,1-benzothiazol-5-yl]cyclopropane-1-carboxamide] |
